Measurements reported in patent publication US6653300B2, “Pyrazole compounds useful as protein kinase inhibitors” (Vertex Pharmaceuticals Incorporated, priority 2000, dated 2003).
Values joined by “and” are separate entries in the source; they are usually repeats but may differ in a detail not shown here. Equal values may be shown once.

Key:
human Src kinase = target: T1, human Src kinase (Homo sapiens, UniProt P12931); test: SRC inhibition assay (radioactivity-based or spectrophotometric assay); type: biochemical; conditions: recombinant human Src kinase; assay A or B; read-out: Ki value for SRC
T1 construct: full length recombinant human Src kinase (from Upstate Biotechnology, cat. no. 14-117); purchased Upstate Biotechnology 14-117; host or cells: baculo viral cells
T1 sequence (P12931 whole entry): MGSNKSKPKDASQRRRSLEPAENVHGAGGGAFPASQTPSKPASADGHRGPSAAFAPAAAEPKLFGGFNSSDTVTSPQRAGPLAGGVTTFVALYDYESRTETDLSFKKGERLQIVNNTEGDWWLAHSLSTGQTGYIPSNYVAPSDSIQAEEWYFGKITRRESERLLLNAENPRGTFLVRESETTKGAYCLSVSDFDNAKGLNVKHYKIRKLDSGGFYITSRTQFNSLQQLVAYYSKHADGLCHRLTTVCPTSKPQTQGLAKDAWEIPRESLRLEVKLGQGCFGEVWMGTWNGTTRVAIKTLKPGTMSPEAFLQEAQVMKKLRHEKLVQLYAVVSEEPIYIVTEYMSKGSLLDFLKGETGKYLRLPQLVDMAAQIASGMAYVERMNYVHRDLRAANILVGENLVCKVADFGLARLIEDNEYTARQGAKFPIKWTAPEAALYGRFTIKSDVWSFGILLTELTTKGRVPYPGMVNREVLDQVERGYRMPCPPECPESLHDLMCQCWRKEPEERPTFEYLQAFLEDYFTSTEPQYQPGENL
Experimental: The compounds were evaluated as inhibitors of human Src kinase using either a radioactivity-based assay or spectrophotometric assay. The compounds were assayed as inhibitors of full length recombinant human Src kinase (from Upstate Biotechnology, cat. no. 14-117) expressed and purified from baculo viral cells. […] P-0275). […] In a typical assay, all the reaction components with the exception of ATP were pre-mixed and aliquoted into assay plate wells. […] The assay plate was incubated at 30° C. for 10 min before initiating the reaction with ^33P-ATP. After 20 min of reaction, the reactions were quenched with 150 μl of 10% trichloroacetic acid (TCA) containing 20 mM Na3PO4. The quenched samples were then transferred to a 96-well filter plate (Whatman, UNI-Filter GF/F Glass Fiber Filter, cat no. 7700-3310) installed on a filter plate vacuum manifold. Filter plates were washed four times with 10% TCA containing 20 mM Na3PO4 and then 4 times with methanol. 200 μl of scintillation fluid was then added to each well. The plates were sealed and the amount of radioactivity associated with the filters was quantified on a TopCount scintillation counter. The radioactivity incorporated was plotted as a function of the inhibitor concentration. The data was fitted to a competitive inhibition kinetics model to get the Ki for the compound. The ADP produced from ATP by the human recombinant Src kinase-catalyzed phosphorylation of poly Glu-Tyr substrate was quanitified using a coupled enzyme assay (Fox et al (1998) Protein Sci 7, 2249). In this assay one molecule of NADH is oxidised to NAD for every molecule of ADP produced in the kinase reaction. The disappearance of NADH can be conveniently followed at 340 nm. […] In a typical assay, all the reaction components with the exception of ATP were pre-mixed and aliquoted into assay plate wells. […] The absorbance change at 340 nm with time, the rate of the reaction, was monitored on a molecular devices plate reader. The data of rate as a function of the inhibitor concentration was fitted to competitive inhibition kinetics model to get the Ki for the compound.

GSK-3β (AA 1-420) = target: T2, GSK-3β (AA 1-420) (Homo sapiens, UniProt P49841); test: Ki determination for the inhibition of GSK-3 (coupled enzyme system); type: biochemical; conditions: 20 μM ATP, 20 nM GSK-3β, 30° C.
T2 construct: GSK-3β (AA 1-420)
T2 sequence (P49841 whole entry, the tested form may be a part): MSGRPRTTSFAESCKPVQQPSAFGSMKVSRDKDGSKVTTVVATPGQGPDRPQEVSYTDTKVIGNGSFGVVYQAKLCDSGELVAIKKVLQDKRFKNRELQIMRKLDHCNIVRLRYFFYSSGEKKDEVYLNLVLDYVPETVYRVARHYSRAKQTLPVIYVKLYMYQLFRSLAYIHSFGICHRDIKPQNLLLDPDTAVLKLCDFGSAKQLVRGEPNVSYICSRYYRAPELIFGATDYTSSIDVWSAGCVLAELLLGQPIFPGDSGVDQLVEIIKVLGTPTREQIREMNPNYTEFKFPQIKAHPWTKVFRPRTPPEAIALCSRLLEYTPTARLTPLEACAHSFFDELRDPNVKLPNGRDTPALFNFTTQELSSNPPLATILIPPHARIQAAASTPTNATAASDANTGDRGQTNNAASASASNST
Procedure, shortened: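 GSK-3β (AA 1-420, 20 nM) was run in a pyruvate kinase/LDH-coupled NADH assay in 100 mM HEPES pH 7.5, 10 mM MgCl2, 25 mM NaCl, 1 mM DTT, 1.5% DMSO, with 300 μM phosphopeptide substrate. Compound (0.002–30 μM) was preincubated 10 min at 30° C, then 20 μM ATP was added.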

Aurora-2 = target: T3, Aurora-2 (Homo sapiens, UniProt O14965); test: Ki determination for the inhibition of Aurora-2 (coupled enzyme assay); type: biochemical; conditions: 70 nM Aurora-2, 30° C.
T3 sequence (O14965 1-403): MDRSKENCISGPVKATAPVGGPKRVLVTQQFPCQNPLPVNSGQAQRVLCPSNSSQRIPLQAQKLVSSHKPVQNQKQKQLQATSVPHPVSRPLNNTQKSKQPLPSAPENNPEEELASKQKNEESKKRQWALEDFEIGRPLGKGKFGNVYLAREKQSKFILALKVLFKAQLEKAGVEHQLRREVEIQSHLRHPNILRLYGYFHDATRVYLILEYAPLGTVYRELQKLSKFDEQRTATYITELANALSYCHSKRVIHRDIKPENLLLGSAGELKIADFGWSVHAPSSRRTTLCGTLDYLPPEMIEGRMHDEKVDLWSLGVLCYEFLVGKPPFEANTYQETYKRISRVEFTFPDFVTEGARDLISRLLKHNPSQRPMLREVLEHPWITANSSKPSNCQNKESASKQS
Procedure, shortened: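 Ki came from reaction rates plotted against inhibitor concentration, with rates taken as A340 decrease over 5 min at 30° C. Enzyme (70 nM final) was added after 10 min compound preincubation; stock buffer held […], 800 μM LRRASLG, PK/LDH coupling, pH 7.5.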

Row | Compound | Ki (human Src kinase) | Ki (GSK-3β (AA 1-420)) | Ki (Aurora-2) | melting point
1 | CC(=O)Nc1ccc(Sc2nc(Nc3cc(C)n[nH]3)cc(N3CCOCC3)n2)cc1 [IIIa-44, [2-(4-Acetamidophenylsulfanyl)-6-(morpholin-4-yl)-pyrimidin-4-yl]-(5-methyl-2H-pyrazol-3-yl)-amine] | 1000 to 6000 nM | – | – | –
2 | Cc1cc(Nc2cc(-c3ccccc3)nc(Sc3ccc(NC(=O)C(C)C)cc3)n2)n[nH]1 [IIIa-13, [2-(4-Isobutyrylylamino-phenylsulfanyl)-6-phenylpyrimidin-4-yl]-(5-methyl-2H-pyrazol-3-yl)-amine] | 1000 to 6000 nM | – | – | 201 to 202 °C
3 | Cc1cc(Nc2nc(Nc3ccc(NC(=O)OC(C)(C)C)cc3)nc3ccccc23)n[nH]1 [IIc-60, [2-(4-tert-Butoxycarbonylamino-phenylamino)-quinazolin-4-yl]-(5-methyl-2H-pyrazol-3-yl)-amine] | – | 1000 to 7000 nM | < 100 nM | 238 to 242 °C
4 | CS(=O)(=O)Nc1ccc(Sc2nc(Nc3cc(C4CC4)[nH]n3)c3ccccc3n2)cc1 [IIa-61, (5-Cycloprpyl-2H-pyrazol-3-yl)-[2-(4-methylsulfonylamino-phenylsulfanyl)-quinazolin-4-yl]-amine] | – | < 100 nM | < 100 nM | 235 to 238 °C
5 | Cc1cc(Nc2nc(Sc3ccc(C(=O)O)cc3)nc3ccccc23)[nH]n1 [IIa-43, [2-(4-Carboxyphenylsulfanyl)-quinazolin-4-yl]-(5-methyl-2H-pyrazol-3-yl)-amine] | – | < 100 nM | < 100 nM | 263 to 265 °C
6 | Cc1cc(Nc2nc(Nc3ccc4c(c3)OCCO4)nc3ccccc23)n[nH]1 [IIc-7, [2-(2,3-Dihydrobenzo[1,4]dioxin-6-ylamino)-quinazolin-4-yl]-(5-methyl-2H-pyrazol-3-yl)-amine] | – | 100 to 1000 nM | < 100 nM | > 250 °C
7 | Cc1cc(Nc2nc(Sc3ccc(NC(=O)CN(C)C(=O)OC(C)(C)C)cc3)nc3ccccc23)n[nH]1 [IIa-76, (2-{4-[2-(tert-Butoxycarbonyl-methyl-amino)-acetylamino]-phenylsulfanyl}-quinazolin-4-yl)-(5-methyl-2H-pyrazol-3-yl)-amine] | – | 1000 to 7000 nM | < 100 nM | 228 to 229 °C (dec.)
8 | Cc1cc(Nc2nc(Nc3ccc(Br)cc3)nc3ccccc23)n[nH]1 [IIc-67, [2-(4-Bromophenylamino)-quinazolin-4-yl]-(5-methyl-2H-pyrazol-3-yl)-amine] | – | < 100 nM | < 100 nM | 290 to 293 °C
9 | COc1ccc(Nc2nc(Nc3cc(C4CC4)[nH]n3)c3ccccc3n2)cn1 [IIc-20, (5-Cyclopropyl-2H-pyrazol-3-yl)-[2-(6-methoxypyridin-3-ylamino)-quinazolin-4-yl]-amine] | – | < 100 nM | < 100 nM | 120 °C
10 | Cc1cccc(Nc2nc(Nc3cc(C)[nH]n3)c3ccccc3n2)c1 [IIc-50, [2-(3-Methylphenylamino)-quinazolin-4-yl]-(5-methyl-2H-pyrazol-3-yl)-amine] | – | 100 to 1000 nM | < 100 nM | 240 to 242 °C
11 | CC(=O)Nc1ccc(Sc2nc(Nc3cc(C)n[nH]3)cc(-c3ccc(OCCCN(C)C)cc3)n2)cc1 [IIIa-43, {2-(4-Acetamido-phenyl-sulfanyl)-6-[4-(3-dimethylamino-propoxy)-phenyl]-pyrimidin-4-yl}-(5-methyl-2H-pyrazol-3-yl)-amine] | – | 1000 to 7000 nM | 1000 to 10000 nM | 219 to 222 °C
12 | c1ccc2cc(Sc3nc4c(c(Nc5cc(C6CC6)[nH]n5)n3)CCCC4)ccc2c1 [IIa-29, (5-Cyclopropyl-2H-pyrazol-3-yl)-[2-(naphthalen-2-ylsulfanyl)-5,6,7,8-tetrahydroquinazolin-4-yl-]-amine] | – | 100 to 1000 nM | < 100 nM | 244 °C
13 | Cc1cc(Nc2nc(Nc3ccc(Cl)cc3)nc3ccccc23)n[nH]1 [IIc-12, [2-(4-Chlorophenylamino)-quinazolin-4-yl]-(5-methyl-2H-pyrazol-3-yl)-amine] | – | < 100 nM | < 100 nM | > 250 °C
14 | c1ccc2c(Nc3cc(C4CC4)[nH]n3)nc(Nc3ccc(N4CCOCC4)cc3)nc2c1 [IIc-52, (5-Cyclopropyl-2H-pyrazol-3-yl)-{2-[4-(morpholin-1-yl)phenylamino]-quinazolin-4-yl}-amine] | – | 100 to 1000 nM | < 100 nM | 275 to 276 °C

More lines, now with the values ahead:

Row | Ki (human Src kinase) | Ki (GSK-3β (AA 1-420)) | Ki (Aurora-2) | melting point | Compound
15 | – | 1000 to 7000 nM | < 100 nM | 248 to 252 °C | CCc1cc(Nc2nc(Nc3cc(CC)[nH]n3)c3ccccc3n2)n[nH]1 [IIc-69, (5-Ethyl-2H-pyrazol-3-yl)-[2-(5-ethyl-2H-pyrazol-3-ylamino)-quinazolin-4-yl]-amine]
16 | – | < 100 nM | < 100 nM | > 300 °C | O=C(O)c1cccc(Sc2nc(Nc3cc(C4CC4)[nH]n3)c3ccccc3n2)c1 [IIa-26, [2-(3-Carboxyphenylsulfanyl)-quinazolin-4-yl]-(5-cyclopropyl-2H-pyrazol-3-yl)-amine]
17 | – | 100 to 1000 nM | < 100 nM | 275 to 277 °C | COc1cccc2c(Nc3cc(C)[nH]n3)nc(Sc3ccc(NS(C)(=O)=O)cc3)nc12 [IIa-66, [8-Methoxy-2-(4-methylsulfonylamino-phenylsulfanyl)-quinazolin-4-yl]-(5-methyl-2H-pyrazol-3-yl)-amine]
18 | – | < 100 nM | < 100 nM | 293 to 298 °C | Cc1cc(Nc2nc(Nc3ccc(C#N)cc3)nc3ccccc23)n[nH]1 [IIc-61, [2-(4-Cyanophenylamino)-quinazolin-4-yl]-(5-methyl-2H-pyrazol-3-yl)-amine]
19 | – | 100 to 1000 nM | < 100 nM | 233 to 234 °C | c1ccc2c(c1)CC(Nc1nc(Nc3cc(C4CC4)[nH]n3)c3ccccc3n1)C2 [IIc-49, (5-Cyclopropyl-2H-pyrazol-3-yl)-[2-(indan-2-ylamino)-quinazolin-4-yl]-amine]
20 | – | 100 to 1000 nM | < 100 nM | > 250 °C | c1ccc2c(Nc3cc(C4CC4)[nH]n3)nc(NCCC3CCCCC3)nc2c1 [IIc-29, [2-(2-Cyclohexylethylamino)-quinazolin-4-yl]-(5-cyclopropyl-2H-pyrazol-3-yl)-amine]
21 | – | < 100 nM and 100 to 1000 nM | < 100 nM | 280 °C (dec.) | Cc1cc(Nc2nc(NC3CCCCC3)nc3ccccc23)n[nH]1 [IIc-6, (2-Cyclohexylamino-quinazolin-4-yl)-(5-methyl-2H-pyrazol-3-yl)-amine]
22 | – | 100 to 1000 nM | < 100 nM | 201 to 203 °C | c1ccc2[nH]c(Sc3nc(Nc4cc(C5CC5)[nH]n4)c4ccccc4n3)nc2c1 [IIa-34, [2-(Benzimidazol-2-ylsulfanyl)-quinazolin-4-yl]-(5-cyclopropyl-2H-pyrazol-3-yl)-amine]
23 | – | 100 to 1000 nM | < 100 nM | 245 to 246 °C | COC(=O)Cc1ccc(Nc2nc(Nc3cc(C)[nH]n3)c3ccccc3n2)cc1C [IIc-64, [2-(4-Methoxycarbonylmethyl-3-methylphenylamino)-quinazolin-4-yl]-(5-methyl-2H-pyrazol-3-yl)-amine]
